Experimental data as given in patent US20250228834A1, “PHARMACEUTICAL COMPOSITION FOR THE TREATMENT OF COLON AND LUNG CANCER” (HEPAREGENIX GMBH, priority 2022, published 2025).

Columns and labels:
Type in all cases: cell-based
[1] = system: KRAS mutant lung and colorectal cancer cells (H358, H2122, DLD1, HCT 116); test: Colony formation matrix (Assay Method A)
Method: (§1) • KRAS mutant lung and colorectal cancer cells: • Lung: H358 (G12C) (ATCC No: CRL-5807) • H2122 (G12C) (ATCC No: CRL-5985) • Colon:DLD1 (G13D) (ATCC No: CCL-221) • HCT 116 (G13D) (ATCC No: CCL-247)
(§2) All cell lines were cultured in RPMI 1640 medium (Gibco) supplemented with 10% fetal bovine serum, 1% glutamine and penicillin-streptomycin (Gibco) at 37° C. and 5% CO2. Mycoplasma contamination was excluded via a PCR-based method.
(§3) Cell lines were cultured and seeded into 24-well plates. After 24 h incubation, drugs were added using the HP D300 Digital Dispenser. Medium and drugs were refreshed twice a week for 10-14 days. After this, cells were fixed with 4% formaldehyde in PBS and stained with 0.1% crystal violet in water. The quantification of the colony formation matrixes (crystal violet staining per well) was assessed using ImageJ software.
According to Assay Method A cells (H358, H2122, DLD1, HCT 116) were treated with compound (A), Trametinib or their combination at the indicated concentrations (cf. FIG. 1). Drugs were refreshed twice a week. The cells were fixed and stained after 10 days.
According to Assay Method A cells (H358, DLD1, HCT 116) were treated with compound (A), SCH772984 or their combination at the indicated concentrations (cf. FIG. 2). Drugs were refreshed twice a week. The cells were fixed and stained after 10 days.

[2] = system: KRASG12C mutant lung cancer cells (H358, H2122); test: Colony formation matrix (Assay Method A), Example 3; conditions: 10 days, FIG. 3
Method: as §1, §2, §3
According to Assay Method A cells (H358, H2122) were treated with compound (A), AMG510 or their combination at the indicated concentrations (cf. FIG. 3). Drugs were refreshed twice a week. The cells were fixed and stained after 10 days.

[3] = system: KRAS G12C mutant cancer cell line H358; test: Colony formation matrix (Assay Method A), Example 4; conditions: compound (A) combined with RMC4550, 10 days, FIG. 4
Method: as §1, §2, §3
According to Assay Method A H358 cells were treated with compound (A), RMC4550 or their combination at the indicated concentrations (cf. FIG. 4). Drugs were refreshed twice a week. The cells were fixed and stained after 10 days.

[4] = system: Lung Cancer Cells; test: IncuCyte proliferation assay (Assay Method C), confluence
Method: as §2
Drugs were refreshed twice a week.

[5] = system: Lung Cancer Cells; test: IncuCyte Caspase 3/7 apoptosis assay (Assay Method C); conditions: compound (A) in combination with Trametinib, RMC4550 or AMG510; first 72 hours; FIG. 5B
Method: as §2
For IncuCyte proliferation assays and Caspase 3/7 assays, cells were seeded in 96-well plates. After 24 h incubation, drugs and the IncuCyte® Caspase-3/7 green apoptosis assays reagent (Essen Bioscience 4440) were added using the HP D300 Digital Dispenser and the plates were placed in the IncuCyte®. Culture media and drugs were refreshed twice a week for 10 days. Cells were imaged every 4 hours in the IncuCyte ZOOM (Essen Bioscience). Phase-contrast images were collected and analyzed to detect cell proliferation based on cell confluence. Apoptosis was measured based on green fluorescent staining of apoptotic cells using the IncuCyte® Caspase-3/7 green apoptosis assay reagent (Essen Bioscience 4440).
According to assay method C cells were treated with compound (A) as component a) and RMC4550, AMG510, or Trametinib as component b) or combinations of component a) and either one of component b) at the indicated concentrations. Additionally, during the first treatment, the IncuCyte® Caspase-3/7 green apoptosis assay reagent was added to measure apoptosis for the first 72 hours. […] Confluence (left) and Caspase 3/7 activity was measured by the IncuCyte®. […]

CCCS(=O)(=O)Nc1c(F)ccc(C(=O)c2c[nH]c3ncc(-c4cnc(C5CC5)nc4)cc23)c1F [compound (A), N-(3-(5-(2-cyclopropyl-pyrimidin-5-yl)-1H-pyrrolo[2,3-b]pyridine-3-carbonyl)-2,6-difluorophenyl)-propane-1-sulfonamide]
synergy with MEK, ERK, KRAS and SHP2 inhibition, overall conclusion ([1]; compound (A) combined with MEK, ERK, KRAS or SHP2 inhibitor, all obtained results): strongly synergizes
synergy with ERK inhibition in colony formation matrix ([1]; compound (A) combined with SCH772984, H358, DLD1, HCT 116, 10 days, FIG. 2): Synergizes
toxicity in colony formation matrix, single drug ([1]; single drug, KRAS mutant cancer cells (H358, H2122, DLD1, HCT 116), fixed and stained after 10 days, FIG. 1): did not show sensitivity
toxicity compared to the single agent effect of AMG510 ([2]; addition of compound (A) to AMG510, KRAS G12C mutants H358, H2122): strongly increased the toxicity
synergy with AMG510 in colony formation matrix ([2]; compound (A) combined with AMG510, H358, H2122): strong synergy
synergy with SHP2 inhibition in colony formation matrix [3]: Synergizes
cell proliferation (confluence) ([4]; compound (A) in combination with Trametinib, RMC4550 or AMG510, FIG. 5A): Abrogates Cell Proliferations
synergistic effect of combination (confluence and Caspase 3/7 activity) ([4]; compound (A) with MEK, SHP2 and KRASG12C inhibitors, example 5, FIGS. 5A and 5B): synergistic effect
apoptosis (Caspase 3/7 activity) [5]: Induces Apoptosis
